Source: US12472176B2, “Pharmaceutical compositions comprising (S)-4-(4-(4-(((2-(2,6-dioxopiperidin-3-yl)-1-oxoisoindolin-4-yl)oxy)methyl)benzyl)piperazin-1-yl)-3-fluorobenzonitrile and methods of using the same” (Celgene Corporation, priority 2020, dated 2025)

What was measured:
[1] = Binary drug-excipient compatibility study (open dish); format: physicochemical
Experimental: A binary drug-excipient compatibility study was conducted to identify suitable excipients for capsule formulation. Considering the low dose formulation where diluent constitutes majority of the composition, API to diluent ratio was 1:400; for other excipients, the ration was 1:50.
Drug substance and excipients were dispensed at predetermined ratios, mixed using a vortex mixer for 30 seconds, and then dispensed into required number of vials for stability study. These vials (open dish condition) were exposed to 50° C./0% RH and 50° C./75% RH conditions for 2 and 4 weeks respectively. The control samples were stored in a refrigerator at 5° C. Selective samples were tested for chemical degradants and loss of chiral purity (conversion of S-isomer to R-isomer) after 2-weeks.
The following are the major degradation pathways that could be shelf-life limiting: (1) hydrolysis; (2) oxidation; and (3) loss of chiral purity. The total chemical impurities and chiral impurity levels of the samples after stressing for 2-weeks and 4-weeks are compared with the control samples which are shown in FIG. 1A and FIG. 1B, respectively.

[2] = pKa and pHmax of the HBr salt; format: physicochemical
[3] = control sample, stored at 5° C.

chemical impurity level ([1]; 2-weeks exposure at 50° C./75% RH, open dish): 0.35%
chemical impurity level ([1]; 4-weeks exposure at 50° C./75% RH, open dish): 0.77%
chiral impurity ([1]; 4 weeks at 50° C./75% RH, open dish): 0.4%
chemical impurities [1, 3]: 0.2%
chiral impurity [1, 3]: 0.3%
change in chemical impurities or chiral impurity ([1]; dry condition (50° C.)): no significant change
pHmax [2]: 4.62
pKa [2]: 6.62
SMILES: Br.N#Cc1ccc(N2CCN(Cc3ccc(COc4cccc5c4CN([C@H]4CCC(=O)NC4=O)C5=O)cc3)CC2)c(F)c1 [Compound 1 HBr]
